Bounds are passed on as bounds.

The first test concerns MV-4-11 cells. The experiment in a line: Cell Viability Assay in MV-4-11 Cells. The conditions noted are these: Homo sapiens, MV4-11, 72 h. It counts as cell-based. In short, it runs like this: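 MV-4-11 cells at 7,000/well in IMDM with 10% FBS, exposed to compound for 72 h. Viability by CellTiter-Glo luminescence, normalized to DMSO as 100%, fitted with a four-parameter curve.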
As to `Cc1csc2ccnc(N(C(=O)c3ccc(-c4nnn5c4COCC5)cc3F)[C@@H]3CCCNC3)c12` [Example 635, (R)-4-(6,7-dihydro-4H-[1,2,3]triazolo[5,1-c][1,4]oxazin-3-yl)-2-fluoro-N-(3-methylthieno[3,2-c]pyridin-4-yl)-N-(piperidin-3-yl)benzamide], the midpoint of inhibition, the IC50, lay at 100 nM.

Still in this test, the particulars now being: Homo sapiens, MV4-11, 72 h, MV-4-11 cells, 72 h, Cell-Titer Glo; read-out: IC50.
Consider `Cc1cc(Cl)cc2ccnc(N(C(=O)c3ccc(-n4nnc5cccnc54)cc3F)[C@@H]3CCCNC3)c12` [Example 615, N-(6-chloro-8-methyl-1-isoquinolyl)-2-fluoro-N-[(3R)-3-piperidyl]-4-(triazolo[4,5-b]pyridin-3-yl)benzamide], for which the IC50 is 17 nM.

For the compound `CCc1csc2ccnc(N(C(=O)c3ccc(-c4nnc(C)s4)cc3F)[C@@H]3CCCNC3)c12` [Example 617, (R)—N-(3-ethylthieno[3,2-c]pyridin-4-yl)-2-fluoro-4-(5-methyl-1,3,4-thiadiazol-2-yl)-N-(piperidin-3-yl)benzamide], the IC50 turned out to be 540 nM. Still for that read-out and setting: for `Cc1cc(Cl)cc2ccnc(N(C(=O)c3ccc(-c4nnn(C)c4CO)cc3F)[C@@H]3CCCNC3)c12` [Example 618, (R)—N-(6-chloro-8-methylisoquinolin-1-yl)-2-fluoro-4-(5-(hydroxymethyl)-1-methyl-1H-1,2,3-triazol-4-yl)-N-(piperidin-3-yl)benzamide] the value was 53 nM; for `COc1cc(C)c2c(N(C(=O)c3ccc(-c4cn(C)nn4)cc3F)[C@@H]3CCCNC3)nccc2c1` [Example 619, (R)-2-fluoro-N-(6-methoxy-8-methylisoquinolin-1-yl)-4-(1-methyl-1H-1,2,3-triazol-4-yl)-N-(piperidin-3-yl)benzamide], 38 nM.

For `Cc1cc(F)cc2ccnc(N(C(=O)c3ccc(-c4cn(C)nn4)cc3F)[C@H]3CCCNC3)c12` [Example 620, 2-fluoro-N-(6-fluoro-8-methyl-1-isoquinolyl)-4-(1-methyltriazol-4-yl)-N-[(3S)-3-piperidyl]benzamide], the IC50 was greater than 5900 nM.

Turning to `Cc1cc(Cl)cc2ccnc(N(C(=O)c3ccc(-c4cn(C)nn4)cc3F)[C@H]3CCCNC3)c12` [Example 621, (S)—N-(6-chloro-8-methylisoquinolin-1-yl)-2-fluoro-4-(1-methyl-1H-1,2,3-triazol-4-yl)-N-(piperidin-3-yl)benzamide], the IC50 came out at 4100 nM. For `Cc1nnc(-c2ccc(C(=O)N(c3nccc4cccc(C)c34)[C@@H]3CCCNC3)cn2)s1` [Example 622, (R)-6-(5-methyl-1,3,4-thiadiazol-2-yl)-N-(8-methylisoquinolin-1-yl)-N-(piperidin-3-yl)nicotinamide], the IC50 was 170 nM. With `Cc1cccc2ccnc(N(C(=O)c3ccc(Nc4nccc(N5CCC[C@@H](O)C5)n4)cc3F)[C@@H]3CCCNC3)c12` [Example 623, 2-fluoro-4-((4-((R)-3-hydroxypiperidin-1-yl)pyrimidin-2-yl)amino)-N-(8-methylisoquinolin-1-yl)-N—((R)-piperidin-3-yl)benzamide], the IC50 is 30 nM.

In the case of `Cc1cccc2ccnc(N(C(=O)c3ccc(Nc4nccc(N5CCC[C@H](O)C5)n4)cc3F)[C@@H]3CCCNC3)c12` [Example 624, 2-fluoro-4-((4-((S)-3-hydroxypiperidin-1-yl)pyrimidin-2-yl)amino)-N-(8-methylisoquinolin-1-yl)-N—((R)-piperidin-3-yl)benzamide], the IC50 came to 180 nM. The same measure, in the same setting: for `Cc1cccc2ccnc(N(C(=O)c3ccc(Nc4nccc(N5CC[C@H](O)C5)n4)cc3F)[C@@H]3CCCNC3)c12` [Example 625, 2-fluoro-4-((4-((S)-3-hydroxypyrrolidin-1-yl)pyrimidin-2-yl)amino)-N-(8-methylisoquinolin-1-yl)-N—((R)-piperidin-3-yl)benzamide] the value was 20 nM; for `Cc1ccc(F)c2ccnc(N(C(=O)c3ccc(-c4cnn5cccnc45)cc3F)[C@@H]3CCCNC3)c12` [Example 626, (R)-2-fluoro-N-(5-fluoro-8-methylisoquinolin-1-yl)-N-(piperidin-3-yl)-4-(pyrazolo[1,5-a]pyrimidin-3-yl)benzamide], 110 nM. `Cc1cc(F)cc2ccnc(N(C(=O)c3ccc(-c4cnn5cccnc45)cc3F)[C@@H]3CCCNC3)c12` [Example 627, (R)-2-fluoro-N-(6-fluoro-8-methylisoquinolin-1-yl)-N-(piperidin-3-yl)-4-(pyrazolo[1,5-a]pyrimidin-3-yl)benzamide]: the IC50 is 160 nM. As for `Cc1nnc(-c2ccc(C(=O)N(c3nccc4cccc(C)c34)[C@@H]3CCCNC3)c(C)c2)s1` [Example 628, (R)-2-methyl-4-(5-methyl-1,3,4-thiadiazol-2-yl)-N-(8-methylisoquinolin-1-yl)-N-(piperidin-3-yl)benzamide], the IC50 was 630 nM. Consider `Cc1nnc(-c2ccc(C(=O)N(c3nccc4scc(C)c34)[C@@H]3CCCNC3)cn2)s1` [Example 629, 6-(5-methyl-1,3,4-thiadiazol-2-yl)-N-(3-methylthieno[3,2-c]pyridin-4-yl)-N-[(3R)-3-piperidyl]pyridine-3-carboxamide], for which the IC50 was 160 nM. For the compound `COCc1cn(-c2ccc(C(=O)N(c3nccc4scc(C)c34)[C@@H]3CCCNC3)cc2)nn1` [Example 630, (R)-4-(4-(methoxymethyl)-1H-1,2,3-triazol-1-yl)-N-(3-methylthieno[3,2-c]pyridin-4-yl)-N-(piperidin-3-yl)benzamide], the IC50 came out at 160 nM. The same measure, in the same setting: the value for `COCc1cn(-c2ccc(C(=O)N(c3nccc4cc(Cl)cc(C)c34)[C@@H]3CCCNC3)cn2)nn1` [Example 631, (R)—N-(6-chloro-8-methylisoquinolin-1-yl)-6-(4-(methoxymethyl)-1H-1,2,3-triazol-1-yl)-N-(piperidin-3-yl)nicotinamide] was 100 nM; that for `COCc1cn(-c2ccc(C(=O)N(c3nccc4cc(Cl)cc(C)c34)[C@@H]3CCCNC3)nc2)nn1` [Example 632, (R)—N-(6-chloro-8-methylisoquinolin-1-yl)-5-(4-(methoxymethyl)-1H-1,2,3-triazol-1-yl)-N-(piperidin-3-yl)picolinamide] was 190 nM; that for `COCCc1nnc(-c2ccc(C(=O)N(c3nccc4scc(C)c34)[C@@H]3CCCNC3)cc2)s1` [Example 633, (R)-4-(5-(2-methoxyethyl)-1,3,4-thiadiazol-2-yl)-N-(3-methylthieno[3,2-c]pyridin-4-yl)-N-(piperidin-3-yl)benzamide] was 31 nM.

`COCCc1nnc(-c2ccc(C(=O)N(c3nccc4scc(C)c34)[C@@H]3CCCNC3)c(F)c2)s1` [Example 634, (R)-2-fluoro-4-(5-(2-methoxyethyl)-1,3,4-thiadiazol-2-yl)-N-(3-methylthieno[3,2-c]pyridin-4-yl)-N-(piperidin-3-yl)benzamide]: the IC50 amounted to 140 nM. Consider `COCCc1c(-c2ccc(C(=O)N(c3nccc4cc(Cl)cc(C)c34)[C@@H]3CCCNC3)c(F)c2)nnn1C` [Example 636, (R)—N-(6-chloro-8-methylisoquinolin-1-yl)-2-fluoro-4-(5-(2-methoxyethyl)-1-methyl-1H-1,2,3-triazol-4-yl)-N-(piperidin-3-yl)benzamide], for which the IC50 is 100 nM. As for `COCc1c(-c2ccc(C(=O)N(c3nccc4cc(Cl)cc(C)c34)[C@@H]3CCCNC3)c(F)c2)nnn1C` [Example 637, (R)—N-(6-chloro-8-methylisoquinolin-1-yl)-2-fluoro-4-(5-(methoxymethyl)-1-methyl-1H-1,2,3-triazol-4-yl)-N-(piperidin-3-yl)benzamide], the IC50 turned out to be 250 nM.

For the origin of these results see patent publication US20240400555A1 (Initial Therapeutics, Inc., priority 2023, published 2024).
